The record followed here is patent US20240261418A1, “SOS1 DEGRADING AGENT AND PREPARATION METHOD THEREFOR AND APPLICATION THEREOF” (SHANGHAI LEADINGTAC PHARMACEUTICAL CO. LTD., priority 2021, published 2024).

For assay [1], the system named is KRAS G13D mutant human colorectal adenocarcinoma epithelial cells DLD-1. Nature of the assay: 3D cell proliferation inhibition assay, DLD-1. The class given is cell-based. As to conditions: DLD-1, 168 h, 7 days, CTG. From the text: (§1) Test Example 4: 3D Cell Proliferation Inhibition Assay
(§2) The inhibitory effect of the compounds on the proliferation of 3D cells was investigated on KRAS G12C mutant human non-small cell lung cancer cells NCI-H358 (ATCC or Stem Cell Bank, Chinese Academy of Sciences), KRAS G12D mutant human metastatic pancreatic adenocarcinoma cells AsPC-1 (ATCC), KRAS G12V mutant human lung adenocarcinoma cells NCI-H441 (ATCC), and KRAS G13D mutant human colorectal adenocarcinoma epithelial cells DLD-1 (ATCC). The specific procedures were as follows:
(§3) 200 nL of compound solution diluted in a gradient was added to corresponding microwells of a 384-well low-adsorption microwell plate (Corning, 3657) using an Echo sonic pipetting system (Labcyte, Echo 550), so that the final concentration of the test compound in the reaction system was in a range of 20000 nM-0.008 nM. Then 40 μL of cells at a certain density were added to the corresponding microplate. In addition to test wells for the test compounds, both a DMSO control well and a medium control well were set, with the DMSO control well containing DMSO and cells and the medium well containing only medium. […] The plate was incubated at room temperature for 30 min and read on a microplate reader EnVision using the chemiluminescence program. […]

The test system of assay [2] is KRAS G12D mutant human metastatic pancreatic adenocarcinoma cells AsPC-1. Briefly: 3D cell proliferation inhibition assay, AsPC-1. Format: cell-based. As to conditions: ASPC1, 168 h, 7 days, CTG.
From the text: as §1, §2, §3

Each structure is given as a SMILES string. pIC50: −log10 of the molar value.

As for `COc1cc2nc(C)nc(N[C@H](C)c3cc(-c4c(Cl)cccc4CN(C)C)cs3)c2cc1[C@H]1CC[C@H](C(=O)N2CCN(CC3CCC4(CC3)CCN(C(=O)c3ccc(Cl)c(N5CCC(=O)NC5=O)c3)CC4)CC2)CC1` [Example 1, 1-(2-chloro-5-(9-((4-((1R,4R)-4-(4-(((R)-1-(4-(2-chloro-6-((dimethylamino)methyl)phenyl)thien-2-yl)ethyl)amino)-7-methoxy-2-methylquinazolin-6-yl)cyclohexane-1-carbonyl)piperazin-1-yl)methyl)-3-azaspiro[5.5]undecane-3-carbonyl)phenyl)dihydropyrimidine-2,4(1H,3H)-dione], the pIC50 (commonly −log10 of the IC50, conventionally taken in molar units) is 7.30 to 7.52 in assay [1] and 7.52 to 7.82 in assay [2].
For `COc1cc2nc(C)nc(N[C@H](C)c3cc(-c4c(Cl)cccc4CN(C)C)cs3)c2cc1[C@H]1CC[C@H](C(=O)N2CCC(CCOCC3CCN(C(=O)c4ccc(Cl)c(N5CCC(=O)NC5=O)c4)CC3)CC2)CC1` [Example 5, 1-(2-chloro-5-(4-((2-(1-((1R,4R)-4-(4-(((R)-1-(4-(2-chloro-6-((dimethylamino)methyl)phenyl)thien-2-yl)ethyl)amino)-7-methoxy-2-methylquinazolin-6-yl)cyclohexane-1-carbonyl)piperidin-4-yl)ethoxy)methyl)piperidine-1-carbonyl)phenyl)dihydropyrimidine-2,4(1H,3H)-dione] the same measures were 7.00 to 7.30 and 6.00 to 7.00.
